Key:
[1] = tested on: hepatocellular carcinoma or HCC; settings: Table 2-3; labels (2) and (3), PubMed references; cited from earlier work
[2] = tested on: HCC cell lines, Mahlavu, PLC5, HepG2, and Huh7; assay: MTT cell viability test in HCC cell lines
Method: (§1) The HCC cell lines, Mahlavu, PLC5, HepG2, and Huh7, were cultured in Dulbecco's Modified Eagle Medium (DMEM; Seromed, Berlin, Germany) supplemented with 10% heat-inactivated fetal bovine serum, 100 μg/ml streptomycin, 100 μg/ml penicillin, and 2 mM L-glutamine in a humidified atmosphere containing 5% CO2 at 37° C. […] The cells were exposed to different concentrations of the small molecules for 72 hours. Control cells were incubated in the absence of small molecules. Afterwards, the cells were incubated with medium containing MTT for 2 hours. […] For the clonogenic assay, Huh7 cells were seeded out in appropriate dilutions in a 6-well plate and treated with selected small molecules at various concentrations for 15 days. Colonies were fixed with glutaraldehyde (6.0% v/v), stained with crystal violet (0.5% w/v), and counted.

Huh-7 cells = settings: proliferation of Huh-7 cells, other reports; cited from earlier work
Huh7 cells = assay: Clonogenic assay; assay type: cell-based; settings: for inhibition at 10 µM: Homo sapiens, Huh-7, 360 h; for inhibition at 10 µM / Clonogenic assay: colony number at 10 μM
Method: The HCC cell lines, Mahlavu, PLC5, HepG2, and Huh7, were cultured in Dulbecco's Modified Eagle Medium (DMEM; Seromed, Berlin, Germany) supplemented with 10% heat-inactivated fetal bovine serum, 100 μg/ml streptomycin, 100 μg/ml penicillin, and 2 mM L-glutamine in a humidified atmosphere containing 5% CO2 at 37° C. The viability of the exposed cells was determined using the MTT cell viability assay kit (Sigma-Aldrich, St. Louis, USA), according to the manufacturer's instructions. […] The cells were exposed to different concentrations of the small molecules for 72 hours. Control cells were incubated in the absence of small molecules. Afterwards, the cells were incubated with medium containing MTT for 2 hours. The optical density at 450 nm was measured using a microplate reader (Spectral Max250). For the clonogenic assay, Huh7 cells were seeded out in appropriate dilutions in a 6-well plate and treated with selected small molecules at various concentrations for 15 days. Colonies were fixed with glutaraldehyde (6.0% v/v), stained with crystal violet (0.5% w/v), and counted.

HCC cell lines = assay: Drug efficacy label of top 10 CMap drugs (MTT or clonogenic); assay type: cell-based; settings: Table 2-3; labels (1) and (4); gene set in which the drug ranked top 10;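 further: label 1 means effective by MTT or clonogenic assay and 4 means ineffective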
Method: as §1

[3] = tested on: NPC cell lines, TW01, TW03, TW04, BM1
Method: NPC cell lines, TW01, TW03, and TW04 provided by Dr. C T Lin (National Taiwan University, Taiwan), were derived from primary nasopharyngeal tumors of Chinese patients with de novo NPC and had been tested and authenticated (27). NPC cell line BM1, provided by Dr. S K Liao (Chang Gung University, Taiwan), was derived from bone metastatic lesions of an NPC patient (28). NPC cell lines were maintained in DMEM with 10% FBS containing penicillin (100 U/mL) and streptomycin (100 μg/mL) in 5% CO2 at 37° C. Cell viability was determined using the XTT cell viability assay kit (Sigma-Aldrich, St. Louis, USA), according to the manufacturer's instructions. […] Cells were exposed with or without small molecules for 72 hours at different concentrations. Then, the cells were incubated with medium containing XTT in an amount equal to 20% of the culture medium volume for 2 hours. Optical density was measured using a microplate reader (Spectral Max250) at 450 nm.

leukemic cells = settings: cited from earlier work
B16 melanoma cells = settings: cited from earlier work
[4] = 72 h, Table 3-1, HCC cell lines, MTT
[5] = 72 h, Table 2-2, HCC cell lines, MTT
[6] = Table 3-1, HCC cell lines, 72 hours, MTT

Row | Structure (SMILES) | drug efficacy label [1] | IC50 [2, 4] [µM] | inhibition at 10 µM (Huh7 cells; Table 3-1, 15 days) [%] | Clonogenic assay (Huh7 cells; Table 2-2, 15 days) | drug efficacy label (HCC cell lines) | other results
1 | Nc1ccccc1NC(=O)c1ccc(CNC(=O)OCc2cccnc2)cc1 [MS-275] | MS-275 (2) | – | – | – | – | –
2 | CC(C(O)c1ccc(O)cc1)N1CCC(Cc2ccccc2)CC1 (stereo not drawn) [ifenprodil] | ifenprodil (3) | > 10 | – | – | – | –
3 | O=c1cc(-c2ccc(O)c(O)c2)oc2cc(O)cc(O)c12 [luteolin] | – | > 10 | > 50 | Ineffective | luteolin (4) | IC50 (Huh-7 cells): ~50 µM; IC50 [2, 5]: > 10 µM
4 | CC[C@@H](CO)NC(=O)[C@@H]1C=C2c3cccc4[nH]cc(c34)C[C@H]2N(C)C1 [methylergometrine] | – | – | – | – | methylergometrine (4) | Clonogenic assay (Huh7 cells; Table 3-1, 15 days): Ineffective; IC50 ([2]; 72 h): > 10 µM
5 | CC(COc1ccccc1)N(CCCl)Cc1ccccc1 (stereo not drawn) [phenoxybenzamine] | – | – | > 50 | Effective (Effectiveness in clonogenic assay is defined as reducing more than 50% colony number at 10 μM) | (1) and phenoxybenzamine (1) | growth / survival of Huh7 cells (Huh7 cells): could inhibit the survival of Huh7 cells; IC50 ([2]; 72 h): > 10 µM; IC50 [2, 6]: > 10 µM
6 | Cc1cc(/C=C/c2ccc3cc(N(C)C)ccc3[n+]2C)c(C)n1-c1ccccc1 [pyrvinium] | pyrvinium (3) | 0.1 to 1 | – | – | – | –
7 | CC(/C=C/C(=O)NO)=C\[C@@H](C)C(=O)c1ccc(N(C)C)cc1 [trichostatin A] | – | – | – | – | trichostatin A (1) | cytotoxicity in NPC cell lines [3]: Dose-dependent cytotoxicity; IC50 ([2]; Table 2-2, HCC cell lines, 72 hours, MTT): 0.1 to 1 µM; IC50 [2, 6]: 0.1 to 1 µM
8 | CN1CCN(CCCN2c3ccccc3Sc3ccc(C(F)(F)F)cc32)CC1 [trifluoperazine] | – | > 10 | > 50 | Effective (Effectiveness in clonogenic assay is defined as reducing more than 50% colony number at 10 μM) | trifluoperazine (1) | apoptosis (leukemic cells): can induce apoptosis; cytotoxicity in NPC cell lines [3]: Dose-dependent cytotoxicity; IC50 [2, 5]: > 10 µM; apoptosis (B16 melanoma cells): can induce apoptosis
9 | O=C(CCCCCCC(=O)Nc1ccccc1)NO [vorinostat] | vorinostat (2) | – | – | – | – | –

From patent US20110287953A1, “METHOD FOR DISCOVERING POTENTIAL DRUGS” (priority 2010, published 2011)
